Reference: ChEMBL document CHEMBL5120927, “LEGO-Lipophosphonoxins: A Novel Approach in Designing Membrane Targeting Antimicrobials” (J Med Chem, 2022)

Key:
[1] = test system: Enterococcus faecalis; assay: Antibacterial activity against Enterococcus faecalis ATCC 29212 = CCM 4224 assessed as inhibition of bacterial growth incubated for 24 hrs by microdilution assay; assay type: functional
[2] = test system: Staphylococcus aureus; assay: Antibacterial activity against Staphylococcus aureus ATCC 29213 = CCM 4223 assessed as inhibition of bacterial growth incubated for 24 hrs by microdilution assay; assay type: functional
[3] = test system: Staphylococcus aureus; assay: Antibacterial activity against Staphylococcus aureus ATCC 29213 = CCM 4223 assessed as inhibition of bacterial growth incubated for 24 hrs in presence of BSA by microdilution assay; assay type: functional
[4] = test system: Escherichia coli; assay: Antibacterial activity against Escherichia coli ATCC 25922 = CCM 3954 assessed as inhibition of bacterial growth incubated for 24 hrs by microdilution assay; assay type: functional
[5] = test system: Escherichia coli; assay: Antibacterial activity against Escherichia coli ATCC 25922 = CCM 3954 assessed as inhibition of bacterial growth incubated for 24 hrs in presence of BSA by microdilution assay; assay type: functional
[6] = test system: Pseudomonas aeruginosa; assay: Antibacterial activity against Pseudomonas aeruginosa ATCC 27853 = CCM 3955 assessed as inhibition of bacterial growth incubated for 24 hrs by microdilution assay; assay type: functional
[7] = Hemolytic activity in human RBC assessed as haemoglobin release measured after 3 hr; assay type: toxicity, cell-based, Erythrocyte; settings: red blood cells (erythrocytes)
[8] = Gradient chromatographic hydrophobicity index of the compound at pH 3.7 by HPLC analysis; assay type: ADME
[9] = test system: Staphylococcus epidermidis; assay: Antibacterial activity against Staphylococcus epidermidis CCM 7221 assessed as inhibition of bacterial growth incubated for 24 hrs by microdilution assay; assay type: functional
[10] = test system: Staphylococcus aureus; assay: Antibacterial activity against methicillin resistant Staphylococcus aureus 4591/A assessed as reduction in microbial growth incubated for 24 hrs by microdilution assay; assay type: functional
[11] = test system: Escherichia coli; assay: Antibacterial activity against multidrug-resistant Escherichia coli CE5556 expressing CTX-M-15 assessed as reduction in microbial growth incubated for 24 hrs by microdilution assay; assay type: functional
[12] = test system: Enterococcus faecium; assay: Antibacterial activity against vancomycin resistant Enterococcus faecium 419/ANA assessed as reduction in microbial growth incubated for 24 hrs by microdilution assay; assay type: functional
[13] = test system: Pseudomonas aeruginosa; assay: Antibacterial activity against multidrug-resistant Pseudomonas aeruginosa assessed as reduction in microbial growth incubated for 24 hrs by microdilution assay; assay type: functional

Row | SMILES | MIC [1] [µg/mL] | MIC [2] [µg/mL] | MIC [3] [µg/mL] | MIC [4] [µg/mL] | MIC [5] [µg/mL] | MIC [6] [µg/mL] | HC50 at 3 h [7] [µg/mL] | CHI [8] | MIC [9] [µg/mL] | MIC [10] [µg/mL] | MIC [11] [µg/mL] | MIC [12] [µg/mL] | MIC [13] [µg/mL]
1 | CCCCC/C=C\CCOP(=O)(CCN(CCCNC(=N)N)CCCNC(=N)N)OCCCCCOP(=O)(CCN(CCCNC(=N)N)CCCNC(=N)N)OCC/C=C\CCCCC.Cl.Cl.Cl.Cl.Cl.Cl (stereo not given) | 4 | 1 | 1 | 1 | 1 | 8 | 121 | 36.4 | 1 | 1 | 1 | 8 | 8
2 | Cl.Cl.Cl.Cl.Cl.Cl.NCCCN(CCCN)CCP(=O)(OCCCOP(=O)(CCN(CCCN)CCCN)OCC1CCCC1)OCC1CCCC1 (stereo not given) | > 128 | > 128 | > 128 | > 128 | > 128 | > 128 | > 1000 | 5 | > 128 | > 128 | > 128 | > 128 | > 128
3 | CCCCCCOP(=O)(CCN(CCN)CCN)OCCCCCCCCOP(=O)(CCN(CCN)CCN)OCCCCCC.Cl.Cl.Cl.Cl.Cl.Cl (stereo not given) | 16 | 2 | 1 | 8 | 16 | 32 | 231 | 38.6 | 2 | 2 | 64 | 128 | 64
4 | CCCC/C=C\CCOP(=O)(CCN(CCN)CCN)OCCCCCCOP(=O)(CCN(CCN)CCN)OCC/C=C\CCCC.Cl.Cl.Cl.Cl.Cl.Cl (stereo not given) | 4 | 1 | 2 | 1 | 2 | 16 | 254 | 40.1 | 0.5 | 1 | 2 | 32 | 8
5 | CCCCCCCCOP(=O)(CCN(CCCN)CCCN)OCCOCc1ccccc1.Cl.Cl.Cl (stereo not given) | 128 | 128 | > 128 | > 128 | > 132 | > 128 | > 100 | – | – | – | – | – | –
6 | CCCCOP(=O)(CCN(CCCN)CCCN)OCCCCCCCCCCCCOP(=O)(CCN(CCCN)CCCN)OCCCC.Cl.Cl.Cl.Cl.Cl.Cl (stereo not given) | 32 | 4 | 16 | 128 | 128 | 32 | > 500 | 31.4 | 1 | 4 | > 128 | > 128 | 16
7 | Cl.Cl.Cl.Cl.Cl.Cl.NCCCN(CCCN)CCP(=O)(OCCCCCCOP(=O)(CCN(CCCN)CCCN)OCCCC1CCCCC1)OCCCC1CCCCC1 (stereo not given) | 2 | 1 | 1 | 1 | 0.5 | 4 | 183 | 36.4 | 0.5 | 1 | 1 | 16 | 4
8 | CCCCCCCCCOP(=O)(CCN(CCCN)CCCN)OCCc1ccccc1.Cl.Cl.Cl (stereo not given) | 32 | 16 | – | 32 | – | 16 | 58.7 | – | – | – | – | – | –
9 | CCCCCCCCCCCCCCOP(=O)(CCN(CCCN)CCCN)OCCc1c[nH]c2ccccc12.Cl.Cl.Cl.Cl (stereo not given) | 4 | 2 | – | 2 | – | 2 | 12.4 | – | – | – | – | – | –
10 | CCCCCCCCCOP(=O)(CCN(CCCN)CCCN)OCCOCc1ccc(OC)cc1.Cl.Cl.Cl (stereo not given) | 16 | 16 | 128 | 32 | > 133 | 16 | 55 | – | – | – | – | – | –
11 | CCCCCCCCCCCCCCCOP(=O)(CCN(CCCN)CCCN)OCC.Cl.Cl.Cl (stereo not given) | 2 | 2 | > 128 | 1 | > 129 | 2 | 6.9 | – | – | – | – | – | –
12 | CCCCCCCCCCCCOP(=O)(CCN(CCCN)CCCN)OCCCCCCCCCCCC.Cl.Cl.Cl | 25 | 100 | – | 100 | – | 100 | 11.3 | – | – | – | – | – | –
13 | CCCCOP(=O)(CCN(CCCN)CCCN)OCCCCCCCCCCCCCCOP(=O)(CCN(CCCN)CCCN)OCCCC.Cl.Cl.Cl.Cl.Cl.Cl (stereo not given) | 4 | – | – | 16 | – | 4 | – | 35.2 | 0.5 | 2 | 32 | 16 | –
14 | CCCCCOP(=O)(CCN(CCCN)CCCN)OCCCCCCCCCCCCCCOP(=O)(CCN(CCCN)CCCN)OCCCCC.Cl.Cl.Cl.Cl.Cl.Cl (stereo not given) | 1 | – | – | 2 | – | 4 | – | 38.1 | 0.5 | 1 | 2 | 2 | –
15 | CC(C)COP(=O)(CCN(CCCN)CCCN)OCCCCCCCCCCCCCCOP(=O)(CCN(CCCN)CCCN)OCC(C)C.Cl.Cl.Cl.Cl.Cl.Cl (stereo not given) | 4 | – | – | 16 | – | 4 | – | 27.3 | 0.5 | 4 | 16 | 16 | –
16 | CCCCCCCCCCCCCCOP(=O)(CCN(CCCN)CCCN)OCC.Cl.Cl.Cl (stereo not given) | 4 | 4 | > 128 | 4 | > 128 | 4 | 12.2 | – | – | – | – | – | –
17 | CCCCCCCCOP(=O)(CCN(CCCN)CCCN)OCCCCCCCCCCCCOP(=O)(CCN(CCCN)CCCN)OCCCCCCCC.Cl.Cl.Cl.Cl.Cl.Cl (stereo not given) | 1 | – | – | 1 | – | 2 | – | 432 | 0.5 | 1 | 1 | 1 | –
18 | CCCCCCOP(=O)(CCN(CCCN)CCCN)OCCc1cccc2ccccc12.Cl.Cl.Cl (stereo not given) | 64 | 64 | > 128 | > 128 | > 131 | 64 | > 100 | – | – | – | – | – | –
19 | CCCCCCOP(=O)(CCN(CCCN)CCCN)OCCCCCCCCCCCCOP(=O)(CCN(CCCN)CCCN)OCCCCCC.Cl.Cl.Cl.Cl.Cl.Cl (stereo not given) | 0.5 | – | – | 1 | – | 2 | – | 37.7 | 0.125 | 0.5 | 2 | 2 | –
20 | CCCCCCCCCOP(=O)(CCN(CCCN)CCCN)OCCc1ccc([N+](=O)[O-])cc1.Cl.Cl.Cl (stereo not given) | 16 | 8 | 64 | 16 | 128 | 8 | 50 | – | – | – | – | – | –
21 | CCCCCCCCCOP(=O)(CCN(CCCN)CCCN)OCCc1ccc(N)cc1.Cl.Cl.Cl.Cl (stereo not given) | 128 | 64 | > 128 | 128 | > 128 | 128 | > 100 | – | – | – | – | – | –
22 | CCCCCCCCCOP(=O)(CCN(CCCN)CCCN)OCCc1cccc2ccccc12.Cl.Cl.Cl (stereo not given) | 2 | 2 | 64 | 4 | 64 | 4 | 12.8 | – | – | – | – | – | –
23 | CCCCCCOP(=O)(CCN(CCCN)CCCN)OCCCCCCCCCCCCCCOP(=O)(CCN(CCCN)CCCN)OCCCCCC.Cl.Cl.Cl.Cl.Cl.Cl (stereo not given) | 1 | – | – | 1 | – | 2 | – | 40.6 | 0.5 | 1 | 1 | 2 | –
24 | CCCCCOP(=O)(CCN(CCCN)CCCN)OCCCCCCCCCCCCOP(=O)(CCN(CCCN)CCCN)OCCCCC.Cl.Cl.Cl.Cl.Cl.Cl (stereo not given) | 2 | – | 8 | 16 | 16 | 4 | 444 | 34.7 | 0.5 | 1 | 32 | 16 | 4
25 | CCCCCCCCCOP(=O)(CCN(CCCN)CCCN)OCCc1ccc(Cl)cc1.Cl.Cl.Cl (stereo not given) | 2 | 2 | 64 | 2 | 64 | 8 | 17.3 | – | – | – | – | – | –
26 | CCCCCCCCCCCCOP(=O)(CCN(CCCN)CCCN)OCCc1c[nH]c2ccccc12.Cl.Cl.Cl.Cl (stereo not given) | 4 | 2 | – | 4 | – | 8 | 12.1 | – | – | – | – | – | –
27 | CCCCCCCCCCCCCCCCOP(=O)(CCN(CCCN)CCCN)OCC.Cl.Cl.Cl (stereo not given) | 2 | 2 | 128 | 2 | > 130 | 4 | 9.4 | – | – | – | – | – | –
28 | CCCCCCCCCOP(=O)(CCN(CCCN)CCCN)OCCOCc1ccccc1.Cl.Cl.Cl (stereo not given) | 32 | 32 | > 128 | 64 | > 128 | 64 | 79.8 | – | – | – | – | – | –
